Tests used:
[1] = biological target: T1, human serotonin 5-HT1A receptor (Homo sapiens, UniProt P08908); experiment: Functional assay (aequorin, calcium mobilization) in CHO-K1 cells, 5-HT1A receptor; format: cell-based
T1 construct: host or cells: CHO-K1
T1 sequence (P08908 1-422): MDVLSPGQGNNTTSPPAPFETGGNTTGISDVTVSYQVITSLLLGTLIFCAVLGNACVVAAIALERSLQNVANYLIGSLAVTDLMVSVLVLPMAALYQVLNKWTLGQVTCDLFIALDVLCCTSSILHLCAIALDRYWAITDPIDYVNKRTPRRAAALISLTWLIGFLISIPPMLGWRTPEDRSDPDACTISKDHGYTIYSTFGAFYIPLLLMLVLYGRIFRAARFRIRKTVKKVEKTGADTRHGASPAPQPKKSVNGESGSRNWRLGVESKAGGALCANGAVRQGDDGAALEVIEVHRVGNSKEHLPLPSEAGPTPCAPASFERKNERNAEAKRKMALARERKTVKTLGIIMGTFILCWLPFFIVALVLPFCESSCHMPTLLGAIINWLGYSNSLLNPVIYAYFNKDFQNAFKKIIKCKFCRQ
Description: Tested and reference compounds were dissolved in dimethyl sulfoxide (DMSO) at a concentration of 10 mM. Serial dilutions were prepared in a 96-well microplate in assay buffer, and 8 to 10 concentrations were tested. […] The assay was executed according to the previously described protocol [45]. After thawing, cells were transferred to assay buffer (DMEM/HAM’s F12 with 0.1% protease-free BSA) and centrifuged. The cell pellet was resuspended in assay buffer, and coelenterazine h was added at final concentrations of 5 µM. The cell suspension was incubated at 16 °C (or 21 °C), protected from light with constant agitation for 16 h (or 4 h), and then diluted with assay buffer to the concentration of 100,000 cells/mL (or 250,000 cells/mL). After 1 h of incubation, 50 µL of the cell’s suspension was dispensed using automatic injectors built into the radiometric and luminescence plate counter MicroBeta2 LumiJET (PerkinElmer, Waltham, NA, USA) into white opaque 96-well microplates preloaded with test compounds. Immediate light emission generated following calcium mobilization was recorded for 30 s. In antagonist mode, after 25–30 min of incubation, the reference agonist was added to the above assay mix, and light emission was re-recorded. […] IC50 and EC50 values were calculated.

[2] = test system: mice; experiment: Amphetamine-induced hyperlocomotion test in mice; format: in vivo; conditions: doses 0.3–2.5 mg/kg ip, amphetamine 2.5 mg/kg sc
Description: Locomotor activity was recorded in actometers separately for each mouse. After 30 min of adaptation, the number of crossings of photo beams was measured during 60 min. […] MK-801 (0.2 mg/kg, ip) was administered 15 min before the experiment, while amphetamine (2.5 mg/kg) was administered subcutaneously (sc) 30 min before the experiment. […] Values are expressed as means ± SD, n = 8–10 mice per group. Statistical analysis: one-way ANOVA (Newman–Keuls post hoc), * p < 0.05, ** p < 0.01, *** p < 0.001.
The test was performed according to the method described by Carlsson et al.. The mobility of the animals was measured in actometers, i.e., in plastic Opto M3 cages (22 × 12 × 13 cm) connected to a computer with MultiDevice Software v.1.30 (Columbus Instruments, Columbus, OH, USA). The experimental cages were equipped with infrared sources on one side and sensors receiving the emitted rays on the other side of the cage. The crossing of each beam of infrared rays was classified as motor activity. The animals were placed individually in experimental cages immediately after administration of the tested compound, 30 min before the start of the test, to adapt to the new conditions and exclude the occurrence of hyperactivity caused by the change of the environment. Spontaneous locomotor activity was measured every 5 min for 60 min. Mice received two injections: of the tested compound or reference substance (30 min before the test, ip) and of amphetamine (2.5 mg/kg, 30 min before the test, sc) or MK-801 (0.2 mg/kg, 15 min before the test, ip). Control groups received an injection of saline and amphetamine or MK-801, or two injections of saline, respectively. Olanzapine was used as a reference compound.

[3] = test system: mice; experiment: Four-plate test in mice; format: in vivo
Description: Figure 2 The effect of JJGW08 on the number of punished crossings in the four-plate test. Mice were placed in the apparatus, and after a 15 s adaptation period, each mouse crossing from one plate to another was punished with an electric shock. JJGW08 was administered intraperitoneally (ip) 30 min before the test. The control group received 0.9% NaCl solution (ip). Values are expressed as means ± SD, n = 8–10 mice per group. Statistical analysis: one-way ANOVA (Newman–Keuls post hoc), ** p < 0.01.
The four-plate test was performed on mice according to the previously described method. Mice were placed individually in the four-plate apparatus (Panlab, Barcelona, Spain). After a 15 s habituation period, each mouse that crossed from one plate to another (two limbs on one plate, two on another) was punished by an electric shock (0.8 mA, 0.5 s). The number of punished crossings was calculated during the 60 s of the test.

[4] = test system: 5-HT7 receptors; set-up: method as in doi:10.1016/j.molstruc.2022.134585; conditions: cited from earlier work
[5] = antagonist mode, 100 nM serotonin as reference agonist

## COc1ccccc1N1CCN(CCCCCOc2ccccc2C(N)=O)CC1.Cl [JJGW08, 2-{5-[4-(2-metoksyfenylo)piperazin-1-ylo]pentoxy}benzamide hydrochloride]
[1]; agonist mode
  Agonist Mode Emax%: 9%
[1]; [5]
  Antagonist Mode Emax%: 1%
  Antagonist Mode pIC50 ± Range: 8.3 ± 0.1
[2]
  reduction of amphetamine-induced hyperlocomotion: 52–82%
[3]; 0.3 mg/kg ip
  increase in the number of punished crossings: 54%
[3]; 0.625 mg/kg ip
  increase in the number of punished crossings: 49%
[4]
  affinity (in words): moderate affinity

Reference: article PMC9781916, “Antipsychotic- and Anxiolytic-like Properties of a Multimodal Compound JJGW08 in Rodents” (International Journal of Molecular Sciences, 2022)
